Laboratory results published in US9163030B2 (priority 2012, dated 2015).
Like-named read-outs stand apart in the source and are kept apart here.

Key:
KOR [1] = details: brain tissue membranes, included for comparison; read-out: Ki ± SEM KOR; cited from earlier work
DOR [2] = details: brain tissue membranes, included for comparison; read-out: Ki ± SEM DOR; cited from earlier work
MOR [3] = details: brain tissue membranes, included for comparison; read-out: Ki ± SEM MOR; cited from earlier work
KOR [4] = target: T1, KOR (Homo sapiens, UniProt P41145); test: [35S]GTP-γ-S binding assay, hKOR-CHO cells; assay type: biochemical; details: for Emax: normalized to stimulation by standard agonist; for agonist activity KOR EC50: stimulation of [35S]GTP-γ-S binding, no stim = no stimulation
T1 construct: expressed in transfected cells; host or cells: CHO (hKOR-CHO)
T1 sequence (P41145 whole entry): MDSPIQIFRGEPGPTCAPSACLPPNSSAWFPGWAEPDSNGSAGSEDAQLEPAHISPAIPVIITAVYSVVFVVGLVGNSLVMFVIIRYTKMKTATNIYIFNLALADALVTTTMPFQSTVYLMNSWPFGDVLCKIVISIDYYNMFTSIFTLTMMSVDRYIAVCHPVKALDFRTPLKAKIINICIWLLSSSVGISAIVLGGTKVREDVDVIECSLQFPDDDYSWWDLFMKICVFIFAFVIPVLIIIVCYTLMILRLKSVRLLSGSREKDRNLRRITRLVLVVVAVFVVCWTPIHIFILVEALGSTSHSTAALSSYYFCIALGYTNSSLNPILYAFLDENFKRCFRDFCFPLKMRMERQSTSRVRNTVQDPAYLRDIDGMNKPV

[5] = target: T2, CHO cells co-expressing MOR and DOR (dimer cells) (UniProt P32300+P35372); assay type: cell-based, human μ / mouse δ
T2 construct: cMyc (N); expressed in transfected cells; host or cells: CHO (cMyc-mδ-HμCHO cells)
T2 sequence (P35372 whole entry): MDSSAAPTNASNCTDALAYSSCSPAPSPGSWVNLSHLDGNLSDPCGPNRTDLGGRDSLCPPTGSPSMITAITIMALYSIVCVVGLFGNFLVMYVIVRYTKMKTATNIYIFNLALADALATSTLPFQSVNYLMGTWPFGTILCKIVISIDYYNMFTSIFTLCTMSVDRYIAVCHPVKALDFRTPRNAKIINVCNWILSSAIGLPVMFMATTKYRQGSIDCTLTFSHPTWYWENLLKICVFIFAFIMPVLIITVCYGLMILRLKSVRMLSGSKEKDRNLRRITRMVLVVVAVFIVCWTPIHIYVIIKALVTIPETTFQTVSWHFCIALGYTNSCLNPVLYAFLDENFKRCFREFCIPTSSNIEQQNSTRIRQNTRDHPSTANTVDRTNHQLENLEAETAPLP
T2 sequence (P32300 whole entry): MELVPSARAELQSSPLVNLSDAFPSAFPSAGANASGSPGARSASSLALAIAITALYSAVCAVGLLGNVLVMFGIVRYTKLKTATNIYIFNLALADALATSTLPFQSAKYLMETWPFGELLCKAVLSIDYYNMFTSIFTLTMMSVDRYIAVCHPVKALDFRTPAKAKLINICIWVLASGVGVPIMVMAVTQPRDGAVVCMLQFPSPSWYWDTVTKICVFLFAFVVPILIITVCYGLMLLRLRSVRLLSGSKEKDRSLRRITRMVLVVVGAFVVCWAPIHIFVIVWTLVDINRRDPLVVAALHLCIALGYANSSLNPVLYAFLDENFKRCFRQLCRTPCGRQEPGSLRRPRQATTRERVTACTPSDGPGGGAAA

mice [6] = test: 55° C. warm-water tail-withdrawal test; assay type: in vivo, mouse; details: for Antinociceptive A50 Values: calculated at time of peak effect; for antinociceptive effect: in words; for effect of naloxone pretreatment on antinociceptive effect: naloxone 10 mg/kg ip, -10 min, icv test compound
MOR [7] = target: T3, MOR (Homo sapiens, UniProt P35372); test: [35S]GTP-γ-S binding assay, hMOR-CHO cells; assay type: biochemical; details: for functional activity profile at MOR: in words; for Emax: read-out: agonist activity MOR Emax
T3 construct: expressed in transfected cells; host or cells: CHO (hMOR-CHO)
T3 sequence (P35372 whole entry): as the sequence (P35372 whole entry) above

[8] = target: T2, CHO cells co-expressing MOR and DOR (dimer cells); test: cell-based; assay type: cell-based, human μ / mouse δ; parameters: Emax: dose or concentration left out as unconfirmed; details: for Emax: CHO, read-out: decrease of the Emax value for DAMGO-mediated inhibition of forskolin-stimulated cAMP
DOR [9] = target: T4, DOR (Mus musculus, UniProt P32300); test: [35S]GTP-γ-S binding assay, NG108-15 cells; assay type: biochemical; details: for functional activity profile at DOR: in words; for agonist activity DOR EC50: stimulation of [35S]GTP-γ-S binding, no stim = no stimulation; for Emax: read-out: agonist activity DOR Emax
T4 construct: endogenous in cells; host or cells: NG108-15 neuroblastoma x glioma cells
T4 sequence (P32300 whole entry): as the sequence (P32300 whole entry) above

KOR [10] = target: T1, KOR; test: biochemical; assay type: binding
MOR [11] = target: T3, MOR; test: Opioid binding assay, displacement of [3H]DAMGO, hMOR-CHO cell membranes; details: for selectivity ratio MOR/DOR: ratio of Ki values, CHO membranes
DOR [12] = target: T5, DOR (Homo sapiens, UniProt P41143); test: Opioid binding assay, displacement of [3H]DADLE, hDOR-CHO cell membranes
T5 construct: expressed in transfected cells; host or cells: CHO (hDOR-CHO)
T5 sequence (P41143 whole entry): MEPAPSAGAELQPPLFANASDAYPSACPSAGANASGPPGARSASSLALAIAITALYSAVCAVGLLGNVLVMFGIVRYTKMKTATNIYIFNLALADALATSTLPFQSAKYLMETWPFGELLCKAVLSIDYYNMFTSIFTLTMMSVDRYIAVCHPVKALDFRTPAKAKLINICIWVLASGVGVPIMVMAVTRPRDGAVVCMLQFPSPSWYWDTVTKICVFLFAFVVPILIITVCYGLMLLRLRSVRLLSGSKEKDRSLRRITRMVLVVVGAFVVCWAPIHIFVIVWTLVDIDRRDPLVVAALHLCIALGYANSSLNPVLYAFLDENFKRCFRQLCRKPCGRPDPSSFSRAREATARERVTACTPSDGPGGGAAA

mice [13] = test: Tolerance regimen, repeated icv injection, warm-water tail-withdrawal; details: repeated injection paradigm
[14] = normalized to stimulation by DAMGO

Structure (SMILES) | Antinociceptive A50 Values (mice [6]; icv) | antinociceptive effect (mice [6]; icv) | effect of naloxone pretreatment on antinociceptive effect (mice [6]) | functional activity profile at MOR (MOR [7]) | Emax (MOR [7]; [14]) | increase in the EC50 value for DAMGO-mediated inhibition of forskolin-stimulated cAMP accumulation (tolerance) [8] | Emax [8] | functional activity profile at DOR (DOR [9]) | agonist activity DOR EC50 (DOR [9]) | EC50 (KOR [4]) | Emax (KOR [4]) | EC50 (MOR [7]) | Ki (KOR [10]; read-out: Ki ± SEM KOR) | Ki (MOR [11]) | selectivity ratio MOR/DOR (MOR [11]) | Ki (DOR [12]) | melting point | agonist activity KOR EC50 (KOR [4]) | selectivity ratio KOR/DOR (KOR [10]) | Emax (DOR [9]) | further results
CN1CCC23c4c5ccc(O)c4OC2c2ncc(-c4ccc(Cl)cc4)cc2CC3(O)C1C5 (stereo not shown) [Compound 9] | – | – | – | – | – | – | – | – | – | – | – | – | – | – | – | – | – | – | – | – | Ki (KOR [1]): 468 ± 17 nM; Ki (DOR [2]): 3.9 ± 0.2 nM; Ki (MOR [3]): 230 ± 10 nM
Oc1ccc2c3c1OC1c4ncc(-c5ccc(Cl)cc5)cc4CC4(OCCCc5ccccc5)C(C2)N(CC2CC2)CCC314 (stereo not drawn) [Compound 17d, 5′-(4-Chlorophenyl)-17-(cyclopropylmethyl)-6,7-didehydro-4,5α-epoxy-3-hydroxy-14-(3-phenylpropoxy)pyrido[2′,3′:6,7]morphinan] | 0.35 nmol | full antinociceptive effects | blocked by naloxone pretreatment | agonist profile at MOR | 72% | did not produce either tolerance | 40% | antagonists at DOR | no stim | – | – | – | – | – | – | – | – | – | – | – | functional activity profile at KOR (KOR [4]; in words): devoid of agonist activity at KOR; cAMP superactivation (forskolin-stimulated cAMP accumulation after chronic treatment) ([5]; 20 h treatment, washed, forskolin/IBMX 100 μM/500 μM): did not; naloxone-induced cAMP overshoot ([5]; 20 h treatment, washed, forskolin/IBMX plus 10 μM naloxone): did not; antagonist activity DOR Ke (DOR [9]; shift in EC50 of standard agonist): 0.091 nM
COC12Cc3cc(-c4ccc(Cl)cc4)cnc3C3Oc4c(O)ccc5c4C31CCN(C)C2C5 (stereo not drawn) [Compound 17e, 5′-(4-Chlorophenyl)-6,7-didehydro-4,5α-epoxy-3-hydroxy-14-methoxy-17-methylpyrido[2′,3′:6,7]morphinan] | 1.44 nmol | full antinociceptive effects | blocked by naloxone pretreatment | – | 118 ± 4% | – | – | antagonist activity at DOR | no stim | 633 ± 108 nM | 36 ± 2% | 379 nM | 28 ± 1.59 nM | 7.89 ± 0.33 nM | 4.8 | 1.63 ± 0.08 nM | 296 to 299 °C (dec.) | – | – | – | analgesic potency, fold weaker than other tested ligands (mice [6]; icv): 6 fold; selectivity ratio KOR/DOR (KOR [10]; ratio of Ki values, CHO membranes): 17
CN1CCC23c4c5ccc(O)c4OC2c2ncc(-c4ccc(Cl)cc4)cc2CC3(OCCCc2ccccc2)C1C5 (stereo not drawn) [Compound 17h, 5′-(4-Chlorophenyl)-6,7-didehydro-4,5α-epoxy-3-hydroxy-17-methyl-14-(3-phenylpropoxy)pyrido[2′,3′:6,7]morphinan] | 0.23 nmol | full antinociceptive effects | blocked by naloxone pretreatment | – | 125 ± 2% | ~7 fold | 20% | weak to potent partial agonist activity at DOR | – | – | – | 2.15 nM | 1.53 ± 0.1 nM | 0.54 ± 0.04 nM | 0.52 | 1.04 ± 0.08 nM | – | no stim | 1.5 | 85% | cAMP superactivation (forskolin-stimulated cAMP accumulation after chronic treatment) [5]: effects similar to that of morphine; naloxone-induced cAMP overshoot [5]: effects similar to that of morphine; toxicity on repeated administration (mice [13]): undue toxicity
CN1CCC23c4c5ccc(O)c4OC2c2ncc(-c4ccc(Cl)cc4)cc2CC3(OC(=O)CCc2ccccc2)C1C5 (stereo not drawn) [Compound 18f, 5′-(4-Chlorophenyl)-6,7-didehydro-4,5α-epoxy-3-hydroxy-17-methyl-14-(3-phenylpropionyloxy)pyrido[2′,3′:6,7]morphinan] | – | – | – | – | > 100% | – | – | weak to potent partial agonist activity at DOR | – | 136 ± 60 nM | 16 ± 2% | 48 nM | – | 0.94 ± 0.05 nM | 0.98 | 0.96 ± 0.05 nM | 242 to 244 °C | – | 4.6 | 59 ± 2% | agonist activity MOR Emax (MOR [7]; [14]): 105 ± 2%; Ki (KOR [10]): 4.41 ± 0.23 nM
Oc1ccc2c3c1OC1c4ncc(-c5ccc(Cl)cc5)cc4C=C4C(C2)N(CC2CC2)CCC431 (stereo not drawn) [Compound 23, 5′-(4-Chlorophenyl)-17-(cyclopropylmethyl)-3-hydroxy-6,7,8,14-tetradehydro-4,5α-epoxypyrido[2′,3′:6,7]morphinan] | – | – | – | antagonists at MOR | – | – | – | – | no stim | – | – | – | – | 13 ± 0.4 nM | 4.8 | 2.71 ± 0.11 nM | 164 to 166 °C | no stim | 2.2 | – | agonist activity MOR EC50 (MOR [7]; stimulation of [35S]GTP-γ-S binding, no stim = no stimulation): no stim; Ki (KOR [10]): 5.97 ± 0.19 nM
